The values that follow come from US5981255A, “Alkaline protease, process for the production thereof, use thereof, and microorganism producing the same” (priority 1995, dated 1999).

Like-named read-outs stand apart in the source and are kept apart here.

For the assay, the system named is alkaline protease API-26 produced by Bacillus sp. SD 114 (FERM BP-5736). Type of assay: biochemical.

Procedure: Add 50 μl of the enzyme solution diluted appropriately to 500 μl of 50 mM Atkins-Pantin borate buffer, pH10, and pre-incubate at 30° C. for 3 to 5 minutes. To this solution, add 500 μl of 2% Hammarsten*s casein solution, pH 10, and after 10 minutes, stop the reaction by adding 2 ml of trichloroacetic acid (TCA) solution (0.032 M TCA solution adjusted to pH 4 with acetate buffer). Leave at 30° C. for more than 10 minutes, and filter with paper filter No.2 (Toyo Roshi). To 1 ml of filtrate add 5 ml of 0.4 M sodium carbonate and 1 ml of phenol reagent diluted 6-fold with water. Leave at 30° C. for 20 minutes for coloring, and then determine the absorbance at 660 nm. The unit of the protease activity is described by the katal. One katal is defined as the activity that the protease reacting with casein as a substrate at pH 10 and at 30° C. produces a degradation product with the absorbance at 660 nm equivalent to one mole of tyrosine.
Effects of various inhibitors against this enzyme were investigated according to the following conditions and procedure:
A solution containing this enzyme at about 20 nkatal/ml in 50 mM borate buffer, pH 10 was prepared. To this solution, EDTA, p-mercuribenzoic acid (PCMV) or phenylmethanesulfonyl fluoride (PMSF) was added at a concentration shown in Table 4. After incubating at 30° C. for 30 minutes, the enzyme activity was determined.

Turning to `O=C(O)CN(CCN(CC(=O)O)CC(=O)O)CC(=O)O` [EDTA, ethylenediaminetetraacetic acid], under “pH 10”, the “Activity (relative activity, enzyme with no inhibitor = 100%)” value is reported as 99.
In the case of `O=C(O)c1cc[c]([Hg][OH])cc1` [PCMV, p-mercuribenzoic acid], the “Activity (relative activity, enzyme with no inhibitor = 100%)” value (PCMV 1 mM, 50 mM borate buffer pH 10, incubated at 30° C. for 30 minutes, enzyme about 20 nkatal/ml) came to 100%.
